Among the data in patent US9199943B2, “2-(poly-substituted aryl)-6-amino-5-halo-4-pyrimidinecarboxylic acids and their use as herbicides” (Dow AgroSciences, LLC., priority 2006, dated 2015) are pest or weed control values, retold here.

Assay type in all cases: in vivo
The subject of assay [1] is SCPJU = Scirpus juncoides. Briefly: Herbicidal activity in transplanted paddy rice, Scirpus juncoides. The following applies: Schoenoplectiella juncoides, 480 h, water-injected paddy, after 20-22 days; for pest or weed control at 70 g/ha: 70 g ai/ha; for pest or weed control at 17.5 g/ha: 17.5 g ai/ha; for pest or weed control at 140 g/ha: 140 g ai/ha; for pest or weed control at 35 g/ha: 35 g ai/ha. The protocol: (§1) Weed seeds or nutlets of the desired test plant species were planted in puddled soil (mud) prepared by mixing a non-sterilized mineral soil (28 percent silt, 18 percent clay, and 54 percent sand, with a pH of about 7.3 to 7.8 and an organic matter content of about 1.0 percent) and water at a ratio of 100 kg of soil to 19 L of water. The prepared mud was dispensed in 250 mL aliquots into 480 mL non-perforated plastic pots with a surface area of 91.6 square centimeters leaving a headspace of 3 centimeters in each pot. Rice seeds were planted in Sun Gro MetroMix® 306 planting mixture, which typically has a pH of 6.0 to 6.8 and an organic matter content of about 30 percent, in plastic plug trays. Seedlings at the second or third leaf stage of growth were transplanted into 650 mL of mud contained in 960 mL non-perforated plastic pots with a surface area of 91.6 square centimeters 4 days prior to herbicide application. The paddy was created by filling the 3 centimeter headspace of the pots with water. When required to ensure good germination and healthy plants, a fungicide treatment and/or other chemical or physical treatment was applied. The plants were grown for 4-14 days in a greenhouse with an approximate 14 hour photoperiod which was maintained at about 29° C. during the day and 26° C. during the night. Nutrients were added as Osmocote (17:6:10, N:P:K+minor nutrients) at 2 g (grams) per cup. Water was added on a regular basis to maintain the paddy flood, and supplemental lighting was provided with overhead metal halide 1000-Watt lamps as necessary. The plants were employed for testing when they reached the second or third true leaf stage. A weighed amount, determined by the highest rate to be tested, of each test compound was placed in a 120 mL glass vial and was dissolved in 20 mL of acetone to obtain concentrated stock solutions. […] The concentrated stock solutions obtained were diluted with 20 mL of an aqueous mixture containing 0.01% Tween 20 (v/v). Application rates of ½×, ¼×, ⅛× and 1/16× of the high rate were obtained by injecting an appropriate amount of the stock solution into the aqueous layer of the paddy. Control plants were treated in the same manner with the solvent blank. The treated plants and control plants were placed in a greenhouse as described above and water was added as needed to maintain a paddy flood. After 20-22 days, the condition of the test plants as compared with that of the untreated plants was determined visually and scored on a scale of 0 to 100 percent where 0 corresponds to no injury and 100 corresponds to complete kill.

In assay [2] the test system is MOOVA = Monochoria vaginalis. Briefly: Herbicidal activity in transplanted paddy rice, Monochoria vaginalis. The following applies: Pontederia vaginalis, 480 h, water-injected paddy, after 20-22 days; for pest or weed control at 70 g/ha: 70 g ai/ha; for pest or weed control at 17.5 g/ha: 17.5 g ai/ha; for pest or weed control at 140 g/ha: 140 g ai/ha; for pest or weed control at 35 g/ha: 35 g ai/ha. The protocol: as §1

Assay [3] relates to ABUTH = velvetleaf (Abutilon theophrasti). Briefly: General postemergence herbicidal activity, velvetleaf. Conditions: Abutilon theophrasti, post-emergence, 336 h; post-emergent, 140 g ai/ha, visual score after 14 days (0 no injury, 100 complete kill). The protocol:
Seeds or nutlets of the desired test plant species were planted in Sun Gro MetroMix® 306 planting mixture, which typically has a pH of 6.0 to 6.8 and an organic matter content of about 30 percent, in plastic pots with a surface area of 64 square centimeters. When required to ensure good germination and healthy plants, a fungicide treatment and/or other chemical or physical treatment was applied. The plants were grown for 7-21 days in a greenhouse with an approximate 15 hour photoperiod which was maintained at about 23-29° C. during the day and 22-28° C. during the night. Nutrients and water were added on a regular basis and supplemental lighting was provided with overhead metal halide 1000-Watt lamps as necessary. The plants were employed for testing when they reached the first or second true leaf stage.
A weighed amount, determined by the highest rate to be tested, of each test compound was placed in a 25 mL glass vial and was dissolved in 4 mL of a 97:3 v/v (volume/volume) mixture of acetone and dimethyl sulfoxide (DMSO) to obtain concentrated stock solutions. […] The concentrated stock solutions obtained were diluted with 20 mL of an aqueous mixture containing acetone, water, isopropyl alcohol, DMSO, Atplus 411F crop oil concentrate, and Triton X-155 surfactant in a 48.5:39:10:1.5:1.0:0.02 v/v ratio to obtain spray solutions containing the highest application rates. Additional application rates were obtained by serial dilution of 12 mL of the high rate solution into a solution containing 2 mL of 97:3 v/v (volume/volume) mixture of acetone and dimethyl sulfoxide (DMSO) and 10 mL of an aqueous mixture containing acetone, water, isopropyl alcohol, DMSO, Atplus 411F crop oil concentrate, and Triton X-155 surfactant in a 48.5:39:10:1.5:1.0:0.02 v/v ratio to obtain ½×, ¼×, ⅛× and 1/16× rates of the high rate. Compound requirements are based upon a 12 mL application volume at a rate of 187 L/ha. Formulated compounds were applied to the plant material with an overhead Mandel track sprayer equipped with a 8002E nozzles calibrated to deliver 187 L/ha over an application area of 0.503 square meters at a spray height of 18 inches (43 cm) above the average plant canopy height. Control plants were sprayed in the same manner with the solvent blank.
The treated plants and control plants were placed in a greenhouse as described above and watered by sub-irrigation to prevent wash-off of the test compounds. After 14 days, the condition of the test plants as compared with that of the untreated plants was determined visually and scored on a scale of 0 to 100 percent where 0 corresponds to no injury and 100 corresponds to complete kill.
By applying the well-accepted probit analysis as described by J. Berkson in Journal of the […], 48, 565 (1953) and by D. Finney in “Probit Analysis” Cambridge University Press (1952), the above data can be used to calculate GR50 and GR80 values, which are defined as growth reduction factors that correspond to the effective dose of herbicide required to kill or control 50 percent or 80 percent, respectively, of a target plant.

What is called pest or weed control is how far the test organism was held down. A low value points to weak suppression.

Take `COC(=O)c1nc(-c2ccc(Cl)c(OC)c2F)nc(N)c1Br` [Compound 13, 6-amino-5-bromo-2-(4-chloro-2-fluoro-3-methoxyphenyl)-pyrimidine-4-carboxylic acid methyl ester]: the pest or weed control at 70 g/ha in assay [1] worked out at 60%; in assay [2] it was 100%. Besides, the pest or weed control at 140 g/ha in assay [3] amounted to 100%.
As to `COC(=O)c1nc(-c2ccc(Cl)c(OC)c2F)nc(N)c1Cl` [Compound 3, 6-amino-5-chloro-2-(4-chloro-2-fluoro-3-methoxyphenyl)-pyrimidine-4-carboxylic acid methyl ester], the pest or weed control at 17.5 g/ha in assay [1] was determined as 80%; in assay [2], 100%. This compound yielded a pest or weed control at 140 g/ha in assay [3] of 100%.
For `COC(=O)c1nc(-c2ccc(Cl)c(OCC(F)F)c2F)nc(N)c1Cl` [Compound 10, 6-Amino-5-chloro-2-[4-chloro-3-(2,2-difluoroethoxy)-2-fluorophenyl]-pyrimidine-4-carboxylic acid methyl ester], the pest or weed control at 140 g/ha in assay [1] was 40%; in assay [2], 100%; in assay [3], 75%.
For the compound `COC(=O)c1nc(-c2ccc(Cl)c(N(C)C)c2F)nc(N)c1Cl` [Compound 8, 6-Amino-5-chloro-2-(4-chloro-3-dimethylamino-2-fluorophenyl)pyrimidine-4-carboxylic acid methyl ester], the results for the pest or weed control at 35 g/ha in assay [1] and in assay [2] were 10% and 100%, respectively. The same compound yielded a pest or weed control at 140 g/ha in assay [3] of 100%.
For `COC(=O)c1nc(-c2ccc(Cl)c(C(F)F)c2F)nc(N)c1Cl` [Compound 7, 6-Amino-5-chloro-2-(4-chloro-3-difluoromethyl-2-fluorophenyl)pyrimidine-4-carboxylic acid methyl ester], the pest or weed control at 140 g/ha in assay [1] turned out to be 90%; in assay [2] it was 100%; in assay [3], 80%.
With `COC(=O)c1nc(-c2ccc3c(c2F)OCO3)nc(N)c1Cl` [Compound 9, 6-Amino-5-chloro-2-(4-fluorobenzo[1,3]dioxol-5-yl)pyrimidine-4-carboxylic acid methyl ester], the pest or weed control at 35 g/ha came out at 70% in assay [1] and 99% in assay [2]. For the same compound, in assay [3], the pest or weed control at 140 g/ha was 95%.
As to `COC(=O)c1nc(-c2c(F)cc(Cl)c(OC)c2F)nc(N)c1Cl` [Compound 2, 6-amino-5-chloro-2-(4-chloro-2,6-difluoro-3-methoxy-phenyl)pyrimidine-4-carboxylic acid methyl ester], the values for the pest or weed control at 70 g/ha in assay [1] and in assay [2] were 20% and 100%, respectively. The compound also gave a pest or weed control at 140 g/ha in assay [3] of 90%.
Turning to `COC(=O)c1nc(-c2ccc(Cl)c(OC)c2Cl)nc(N)c1Cl` [Compound 6, 6-Amino-5-chloro-2-(2,4-dichloro-3-methoxyphenyl)pyrimidine-4-carboxylic acid methyl ester], the pest or weed control at 17.5 g/ha in assay [2] came to 100%. Besides, the pest or weed control at 140 g/ha in assay [3] came to 95%.
Consider `CCOc1c(Cl)ccc(-c2nc(N)c(Cl)c(C(=O)OC)n2)c1F` [Compound 1, 6-amino-5-chloro-2-(4-chloro-3-ethoxy-2-fluorophenyl)-pyrimidine-4-carboxylic acid methyl ester], for which the pest or weed control at 17.5 g/ha in assay [1] was 50%; in assay [2], 100%. In assay [3], this compound yielded a pest or weed control at 140 g/ha of 100%.
